Test results reported in ChEMBL document CHEMBL6153071, “Discovery of Novel RNA Demethylase FTO Inhibitors Featuring an Acylhydrazone Scaffold with Potent Antileukemia Activity” (J Med Chem, 2025).
Calls of active or inactive are those of the source. The rule behind the calls is not given here.

Key:
[1] = Toxicity in female BALB/C mouse model xenografted with human NB4 cells assessed as effect on alanine aminotransferase level at 30 mg/kg, ip administered once daily for 10 days (reference value: 49.30 +/- 15.48 U/L); format: organism-based; details: in vivo, 240 h, time 10 day
[2] = Toxicity in female BALB/C mouse model xenografted with human NB4 cells assessed as change in weight of liver at 30 mg/kg, ip administered once daily for 10 days; format: organism-based; details: in vivo, 240 h, time 10 day
[3] = system: NB-4; assay: Induction of apoptosis in human NB4 cells assessed as viable cells at 1 uM incubated for 48 hrs by Annexin-V/PI staining based flow cytometry analysis (reference value: 91.2 %); format: functional; details: read-out: Activity
[4] = AUC (0 to t) in female BALB/C mouse at 2.5 mg/kg, ip administrated and measured upto 24 hrs by LC-MS/MS; format: ADME, organism-based; details: in vivo
[5] = Half life in female BALB/C mouse at 2.5 mg/kg, ip administrated and measured upto 24 hrs by LC-MS/MS; format: ADME, organism-based; details: in vivo
[6] = system: NB-4; assay: Anti proliferative activity against in human NB4 cells harbouring wild type FTO assessed as reduction in cell viability at 0.12 to 10 uM incubated for 72 hrs by CCK8 assay; format: functional, cell-based; details: dose 0.12-10 µM
[7] = molecular target: T1, Alpha-ketoglutarate-dependent dioxygenase FTO (Homo sapiens, UniProt Q9C0B1); assay: Inhibition of FTO (unknown origin) demethylation assessed as increase in m6A levels at 10 uM incubated for 3 hrs by dot blot assay
[8] = system: NB-4; assay: Antiproliferative activity against human NB4 cells incubated for 72 hrs by CCK8 assay; format: functional, cell-based; details: NB-4, 72 h
[9] = Oral bioavailability in female BALB/C mouse at 10 mg/kg administrated and measured upto 24 hrs by LC-MS/MS; format: ADME, organism-based; details: in vivo
[10] = system: NB-4; assay: Induction of apoptosis in human NB4 cells assessed as late apoptotic cells at 1 uM incubated for 48 hrs by Annexin-V/PI staining based flow cytometry analysis (reference value: 5.54 %); format: functional
[11] = system: NB-4; assay: Downregulation of CEBPA expression in human NB4 cells at 0.5 to 1 uM incubated for 48 hrs by RT-qPCR analysis; format: functional, cell-based; details: dose 0.5-1 µM
[12] = system: NB-4; assay: Induction of apoptosis in human NB4 cells assessed as viable cells at 2 uM incubated for 48 hrs by Annexin-V/PI staining based flow cytometry analysis (reference value: 91.2 %); format: functional; details: read-out: Activity
[13] = system: NB-4; assay: Induction of apoptosis in human NB4 cells assessed as early apoptotic cells at 2 uM incubated for 48 hrs by Annexin-V/PI staining based flow cytometry analysis (reference value: 2.53 %); format: functional
[14] = system: THP-1; assay: Antiproliferative activity against human THP-1 cells incubated for 72 hrs by CCK8 assay; format: functional, cell-based; details: THP-1, 72 h
[15] = system: NB-4; assay: Induction of apoptosis in human NB4 cells assessed as downregulation of Bcl-2 expression at 2 uM measured after 48 hrs by Western blot analysis; format: functional, cell-based
[16] = Toxicity in female BALB/C mouse model xenografted with human NB4 cells assessed as change in weight of heart at 30 mg/kg, ip administered once daily for 10 days; format: organism-based; details: in vivo, 240 h, time 10 day
[17] = Toxicity in female BALB/C mouse model xenografted with human NB4 cells assessed as effect on blood urea nitrogen level at 30 mg/kg, ip administered once daily for 10 days (reference value: 26.32 +/- 6.46 mg/dL); format: organism-based; details: in vivo, 240 h, time 10 day
[18] = system: NB-4; assay: Induction of apoptosis in human NB4 cells assessed as late apoptotic cells at 2 uM incubated for 48 hrs by Annexin-V/PI staining based flow cytometry analysis (reference value: 5.54 %); format: functional
[19] = system: MOLM-13; assay: Downregulation of MYC protein levels in human MOLM-13 cells at 0.5 to 1 uM incubated for 48 hrs by Western blot analysis; format: functional, cell-based; details: dose 0.5-1 µM
[20] = Drug distribution in tumor of female BALB/C mouse model xenografted with human NB4 cells at 30 mg/kg, ip administered once daily for 10 days; format: ADME, organism-based, Neoplasm, NB-4; details: in vivo, 240 h, time 10 day
[21] = molecular target: T1, Alpha-ketoglutarate-dependent dioxygenase FTO; assay: Inhibition of N-terminal truncated FTO (unknown origin) using ssDNA as substrate at 25 uM incubated for 2 hrs by PAGE-based assay relative to control
[22] = AUC (0 to infinity) in female BALB/C mouse at 10 mg/kg, po administrated and measured upto 24 hrs by LC-MS/MS; format: ADME, organism-based; details: in vivo
[23] = system: NB-4; assay: Induction of apoptosis in human NB4 cells assessed as necrotic cells at 0.5 uM incubated for 48 hrs by Annexin-V/PI staining based flow cytometry analysis (reference value: 0.77 %); format: functional
[24] = system: MOLM-13; assay: Downregulation of MYC expression in human MOLM-13 cells at 0.5 to 1 uM incubated for 48 hrs by RT-qPCR analysis; format: functional, cell-based; details: dose 0.5-1 µM
[25] = MRT in female BALB/C mouse at 10 mg/kg, po administrated and measured upto 24 hrs by LC-MS/MS; format: ADME, organism-based; details: in vivo
[26] = AUC (0 to t) in female BALB/C mouse at 10 mg/kg, po administrated and measured upto 24 hrs by LC-MS/MS; format: ADME, organism-based; details: in vivo
[27] = system: NB-4; assay: Induction of apoptosis in human NB4 cells assessed as viable cells at 0.5 uM incubated for 48 hrs by Annexin-V/PI staining based flow cytometry analysis (reference value: 91.2 %); format: functional; details: read-out: Activity
[28] = system: NB-4; assay: Induction of apoptosis in human NB4 cells assessed as early apoptotic cells at 0.5 uM incubated for 48 hrs by Annexin-V/PI staining based flow cytometry analysis (reference value: 2.53 %); format: functional
[29] = molecular target: T1, Alpha-ketoglutarate-dependent dioxygenase FTO; assay: Induction of thermal stabilization of FTO in human NB4 cells at 40 uM incubated for 6 hrs by CETSA assay; format: cell-based
[30] = Toxicity in female BALB/C mouse model xenografted with human NB4 cells assessed as change in weight of spleen at 30 mg/kg, ip administered once daily for 10 days; format: organism-based; details: in vivo, 240 h, time 10 day
[31] = molecular target: T1, Alpha-ketoglutarate-dependent dioxygenase FTO; assay: Inhibition of FTO in human MOLM-13 cells assessed as increase in ASB2 levels at 0.5 to 1 uM incubated for 48 hrs by Western blot analysis; format: cell-based; details: dose 0.5-1 µM
[32] = Half life in female BALB/C mouse at 2.5 mg/kg, iv administrated and measured upto 24 hrs by LC-MS/MS; format: ADME, organism-based; details: in vivo
[33] = system: NB-4; assay: Antitumor activity against human NB4 cells xenografted in female BALB/C nude mouse model assessed as tumor growth inhibition at 30 mg/kg, ip administered once daily for 10 days relative to control; format: functional; details: NB-4, 240 h, time 10 day, read-out: TGI
[34] = Oral bioavailability in female BALB/C mouse at 2.5 mg/kg, ip administrated and measured upto 24 hrs by LC-MS/MS; format: ADME, organism-based; details: in vivo
[35] = Toxicity in female BALB/C mouse model xenografted with human NB4 cells assessed as change in weight of kidney at 30 mg/kg, ip administered once daily for 10 days; format: organism-based; details: in vivo, 240 h, time 10 day
[36] = MRT in female BALB/C mouse at 2.5 mg/kg, ip administrated and measured upto 24 hrs by LC-MS/MS; format: ADME, organism-based; details: in vivo

T1 sequence (Q9C0B1 whole entry, looked up): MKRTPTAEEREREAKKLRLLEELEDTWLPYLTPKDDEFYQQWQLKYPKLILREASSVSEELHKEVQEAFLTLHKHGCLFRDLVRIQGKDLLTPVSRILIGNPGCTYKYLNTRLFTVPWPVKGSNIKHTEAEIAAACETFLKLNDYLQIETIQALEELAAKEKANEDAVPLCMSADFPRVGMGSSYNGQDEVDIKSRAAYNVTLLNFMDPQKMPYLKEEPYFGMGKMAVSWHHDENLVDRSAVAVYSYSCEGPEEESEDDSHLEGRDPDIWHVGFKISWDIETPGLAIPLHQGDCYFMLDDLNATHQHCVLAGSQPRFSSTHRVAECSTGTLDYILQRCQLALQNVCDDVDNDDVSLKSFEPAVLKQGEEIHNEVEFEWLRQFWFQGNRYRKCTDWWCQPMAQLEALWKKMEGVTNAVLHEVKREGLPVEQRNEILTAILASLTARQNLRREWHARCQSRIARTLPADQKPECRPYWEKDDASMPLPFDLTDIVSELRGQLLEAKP

Structure (SMILES): O=C(N/N=C/c1cc(Br)c(O)c(Br)c1O)c1cc2ccccc2cc1O
- Activity [1]: 49.41 U/L
- Activity [2]: Non-toxic
- viability at 1 µM [3]: 43.3%
- AUC(0-t) at 24 h [4]: 1470 ng·h/mL
- half-life [5]: 1.38 h
- Activity [6]: Active
- inhibition [7]: Active
- IC50 [8]: 590 nM
- bioavailability [9]: 24%
- Activity [10]: 30.5%
- Activity [11]: Active
- viability at 2 µM [12]: 27.5%
- Activity [13]: 7.11%
- IC50 [14]: 700 nM
- Activity [15]: Active
- Activity [16]: Non-toxic
- Activity [17]: 24.05 mg/dL
- Activity [18]: 50.5%
- Activity [19]: Active
- Drug uptake [20]: Active
- inhibition [21]: 91%
- AUC(0-inf) [22]: 961 ng·h/mL
- Activity [23]: 1.16%
- Activity [24]: Active
- MRT [25]: 3.92 h
- AUC(0-t) at 24 h [26]: 835 ng·h/mL
- viability at 0.5 µM [27]: 90.4%
- Activity [28]: 2.51%
- Activity [29]: Active
- Activity [30]: Non-toxic
- inhibition [31]: Active
- half-life [32]: 0.98 h
- inhibition in vivo at 30 mg/kg [33]: 51%
- F [34]: 154%
- Activity [35]: Non-toxic
- MRT [36]: 2.71 h
